IC50 data for 23 compounds are collected here from US12187742B2 (XRAD Therapeutics, Inc., priority 2018, dated 2025).

Structures are written as SMILES. Structures can show the parent of a compound that is named as a salt.

One experiment deals with ATM (Homo sapiens (Human), UniProt Q13315). Description: ATM in Cell Western Assay (pKAP1 in etoposide-treated MCF-7 cells). It is filed as cell-based. The conditions noted are these: MCF-7 cells, etoposide 100 μM, 1 hr, pKAP1 readout. The procedure: Assay of Compounds ATM and DNA-PK Inhibition
Chain of ATM (Q13315 whole entry): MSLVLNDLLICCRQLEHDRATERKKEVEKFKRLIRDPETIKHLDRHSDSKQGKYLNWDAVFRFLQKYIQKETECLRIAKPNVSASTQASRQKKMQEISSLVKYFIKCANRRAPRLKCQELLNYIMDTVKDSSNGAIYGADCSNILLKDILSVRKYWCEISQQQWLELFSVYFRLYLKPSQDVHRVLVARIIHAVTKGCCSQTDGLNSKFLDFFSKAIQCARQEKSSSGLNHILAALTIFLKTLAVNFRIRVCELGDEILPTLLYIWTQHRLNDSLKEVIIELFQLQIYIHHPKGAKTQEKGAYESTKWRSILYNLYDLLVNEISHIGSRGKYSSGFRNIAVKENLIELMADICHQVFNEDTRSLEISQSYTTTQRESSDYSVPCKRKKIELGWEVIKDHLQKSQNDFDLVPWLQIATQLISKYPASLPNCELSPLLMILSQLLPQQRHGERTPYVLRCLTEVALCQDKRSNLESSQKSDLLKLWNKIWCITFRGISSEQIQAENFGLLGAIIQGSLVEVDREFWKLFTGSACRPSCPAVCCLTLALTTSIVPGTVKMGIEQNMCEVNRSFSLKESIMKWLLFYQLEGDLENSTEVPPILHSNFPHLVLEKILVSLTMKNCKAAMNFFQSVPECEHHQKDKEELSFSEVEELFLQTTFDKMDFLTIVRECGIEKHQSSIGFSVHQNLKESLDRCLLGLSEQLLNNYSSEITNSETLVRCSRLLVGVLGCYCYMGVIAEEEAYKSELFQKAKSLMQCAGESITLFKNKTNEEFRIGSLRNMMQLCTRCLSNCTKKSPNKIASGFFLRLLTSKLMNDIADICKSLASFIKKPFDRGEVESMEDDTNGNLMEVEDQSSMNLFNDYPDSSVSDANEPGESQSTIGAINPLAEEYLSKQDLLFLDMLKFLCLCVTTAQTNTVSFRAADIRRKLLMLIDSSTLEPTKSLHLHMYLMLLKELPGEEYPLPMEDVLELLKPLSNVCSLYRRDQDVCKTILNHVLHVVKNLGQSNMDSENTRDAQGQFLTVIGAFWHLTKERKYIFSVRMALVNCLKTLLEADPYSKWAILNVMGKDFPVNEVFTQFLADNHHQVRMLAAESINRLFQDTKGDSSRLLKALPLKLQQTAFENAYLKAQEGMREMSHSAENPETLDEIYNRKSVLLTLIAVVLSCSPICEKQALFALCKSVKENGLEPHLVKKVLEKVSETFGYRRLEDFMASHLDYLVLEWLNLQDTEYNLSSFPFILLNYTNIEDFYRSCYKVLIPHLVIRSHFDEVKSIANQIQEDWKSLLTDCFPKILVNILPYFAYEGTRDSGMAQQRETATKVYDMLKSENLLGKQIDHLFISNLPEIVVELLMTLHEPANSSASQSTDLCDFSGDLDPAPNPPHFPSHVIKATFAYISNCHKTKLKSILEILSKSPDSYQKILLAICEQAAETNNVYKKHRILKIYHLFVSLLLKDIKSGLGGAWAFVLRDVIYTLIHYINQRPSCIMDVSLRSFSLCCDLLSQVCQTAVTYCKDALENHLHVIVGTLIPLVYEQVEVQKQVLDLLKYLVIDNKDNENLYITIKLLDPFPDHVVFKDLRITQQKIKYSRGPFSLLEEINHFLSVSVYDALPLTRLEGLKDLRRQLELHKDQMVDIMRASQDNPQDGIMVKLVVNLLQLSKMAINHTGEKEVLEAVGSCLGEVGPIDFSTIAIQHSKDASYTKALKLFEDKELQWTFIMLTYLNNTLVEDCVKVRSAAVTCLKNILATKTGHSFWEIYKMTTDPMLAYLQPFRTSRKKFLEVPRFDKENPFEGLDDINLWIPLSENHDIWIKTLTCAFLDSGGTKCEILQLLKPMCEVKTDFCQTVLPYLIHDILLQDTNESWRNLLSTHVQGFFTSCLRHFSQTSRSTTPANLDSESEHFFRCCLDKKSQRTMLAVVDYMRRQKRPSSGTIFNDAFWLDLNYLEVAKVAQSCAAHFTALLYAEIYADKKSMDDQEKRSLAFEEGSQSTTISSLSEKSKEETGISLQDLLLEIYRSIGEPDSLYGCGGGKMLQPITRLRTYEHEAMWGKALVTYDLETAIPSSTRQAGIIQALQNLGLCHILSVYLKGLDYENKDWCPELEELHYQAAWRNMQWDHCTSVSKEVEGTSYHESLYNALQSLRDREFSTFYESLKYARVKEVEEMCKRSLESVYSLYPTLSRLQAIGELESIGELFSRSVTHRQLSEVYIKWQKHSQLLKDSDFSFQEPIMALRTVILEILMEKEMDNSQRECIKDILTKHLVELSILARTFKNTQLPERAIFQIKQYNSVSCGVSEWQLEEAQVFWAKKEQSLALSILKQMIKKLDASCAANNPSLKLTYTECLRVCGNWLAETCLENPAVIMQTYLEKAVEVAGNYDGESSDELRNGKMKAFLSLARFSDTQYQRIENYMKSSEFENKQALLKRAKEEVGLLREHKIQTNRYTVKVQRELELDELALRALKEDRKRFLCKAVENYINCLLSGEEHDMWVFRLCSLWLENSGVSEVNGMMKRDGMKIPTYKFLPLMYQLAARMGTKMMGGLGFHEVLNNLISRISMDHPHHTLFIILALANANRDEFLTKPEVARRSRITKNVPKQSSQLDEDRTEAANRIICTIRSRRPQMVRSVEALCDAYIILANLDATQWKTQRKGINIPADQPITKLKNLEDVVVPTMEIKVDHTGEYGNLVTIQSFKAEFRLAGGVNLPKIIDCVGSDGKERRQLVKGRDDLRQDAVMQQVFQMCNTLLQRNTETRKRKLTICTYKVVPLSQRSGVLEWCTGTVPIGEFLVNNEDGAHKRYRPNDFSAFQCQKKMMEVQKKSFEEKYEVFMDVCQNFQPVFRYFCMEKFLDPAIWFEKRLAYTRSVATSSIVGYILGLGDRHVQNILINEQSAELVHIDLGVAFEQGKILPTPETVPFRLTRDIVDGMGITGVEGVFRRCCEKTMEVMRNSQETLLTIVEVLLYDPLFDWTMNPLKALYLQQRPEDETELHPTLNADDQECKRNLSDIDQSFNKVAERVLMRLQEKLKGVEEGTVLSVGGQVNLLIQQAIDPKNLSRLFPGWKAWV
ATM in Cell Western Assay:
Next day, add corresponding concentration of compounds using pin tool (Echo 550), the final top concentration is 1 μM, 3-fold series dilution, total 10 doses. Then add etoposide (Sigma, #E1383) to a final concentration of 100 μM. Incubate at 37° C. for 1 hr. Fix cells by adding 25 μL of fixing solution (8% paraformaldehyde) for 20 minutes at ambient temperature. Permeabilize cells for 5 washes with 1×PBS (phosphate buffered saline) containing 0.1% Triton X-100; each wash is for 5 minutes. […] The next day, wash the plate 5 times with 1×PBST (1×PBS containing 0.1% Tween-20). […] Wash the cells for 5 times with 1×PBST (1×PBS containing 0.1% Tween-20) at ambient temperature, using gentle shaking in the dark. After the last wash
remove wash solution, turn plate upside down onto a thin paper towel and centrifuge at 1000 rpm for 1 min to absorb all wash buffer. Clean the bottom of plate with moist lint free paper. Scan plate immediately using ODYSSEY CLx (LI-COR) for the best results.
What is called IC50 is the concentration needed to halve the response being measured. A higher IC50 goes with weaker potency in that assay. As for `CN1C(=O)C2(CCC2)c2c1cnc1ccc(-c3cnc(N4CCS(=N)(=O)CC4)c(NS(=O)(=O)c4ccccc4)c3)cc21` (racemic) [Example 138, rac-N-(2-(1-Imino-1-oxido-1λ^6-thiomorpholino)-5-(3′-methyl-2′-oxo-2′,3′-dihydrospiro[cyclobutane-1,1′-pyrrolo[2,3-c]quinolin]-8′-yl)pyridin-3-yl)benzenesulfonamide hydrochloride], the IC50 was more than 100 nM. As to `COc1ncc(-c2ccc3ncc4c(c3c2)C2(CCC2)C(=O)N4C)cc1S(=N)(=O)c1ccccc1` (racemic) [Example 151, rac-8′-(6-Methoxy-5-(phenylsulfonimidoyl)pyridin-3-yl)-3′-methylspiro[cyclobutane-1,1′-pyrrolo[2,3-c]quinolin]-2′(3′H)-one], the IC50 was more than 100 nM. Same read-out and setting: the same measure for `CN(C)CCCOc1ncc(-c2ccc3ncc4c(c3c2)C2(CCCC2)C(=O)N4C)cc1NC(=O)c1ccccc1` [Example 7]: more than 100 nM; for `COc1ncc(-c2ccc3ncc4c(c3c2)C2(CC2)C(=O)N4Cc2cn[nH]c2)cc1NS(=O)(=O)c1ccccc1` [Example 11, N-(5-(3′-((1H-Pyrazol-4-yl)methyl)-2′-oxo-2′,3′-dihydrospiro[cyclopropane-1,1′-pyrrolo[2,3-c]quinolin]-8′-yl)-2-methoxypyridin-3-yl) benzenesulfonamide]: more than 100 nM. Same read-out and setting: the result for `COc1ncc(-c2ccc3ncc(Nc4ccn(C)n4)c(=O)n3c2)cc1NS(=O)(=O)c1ccccc1` [Example 16, N-(2-Methoxy-5-(3-((1-methyl-1H-pyrazol-3-yl)amino)-4-oxo-4H-pyrido[1,2-a]pyrimidin-7-yl)pyridin-3-yl)benzenesulfonamide] reads more than 100 nM. In turn, `COc1ncc(-c2ccc3ncc4c(c3c2)C2(CC2)C(=O)N4CC2COC2)cc1NS(=O)(=O)c1ccccc1` [Example 17, N-(2-Methoxy-5-(3 (oxetan-3-ylmethyl)-2′-oxo-2′,3′-dihydrospiro[cyclopropane-1,1′-pyrrolo[2,3-c]quinolin]-8′-yl)pyridin-3-yl)benzenesulfonamide] had an IC50 of more than 100 nM. Still for that read-out and setting: the result for `COc1ncc(-c2ccc3ncc4c(c3c2)C2(CC2)C(=O)N4C)cc1NS(=O)(=O)c1cccc(C(C)O)c1` (centres unmarked) [Example 18, 3-(1-Hydroxyethyl)-N-(2-methoxy-5-(3′-methyl-2′-oxo-2′,3′-dihydrospiro[cyclopropane-1,1′-pyrrolo[2,3-c]quinolin]-8′-yl)pyridin-3-yl)benzenesulfonamide] reads 1 to 100 nM; that for `CN1C(=O)C2(CC2)c2c1cnc1ccc(-c3cnc4ccccc4c3)cc21` [Example 20, 3′-Methyl-8′-(quinolin-3-yl)spiro[cyclopropane-1,1′-pyrrolo[2,3-c]quinolin]-2′(3′-H)-one], more than 100 nM. The same measure, in the same setting: the same measure for `CN1C(=O)C(C)(c2ccncc2)c2c1cnc1ccc(-c3cnc(Cl)c(NS(=O)(=O)c4ccccc4)c3)cc21` (centres unmarked) [Example 23, N-(2-Chloro-5-(1,3-dimethyl-2-oxo-1-(pyridin-4-yl)-2′,3′-dihydro-1H-pyrrolo[2,3-c]quinolin-8-yl)pyridin-3-yl)benzenesulfonamide]: more than 100 nM; for `CN1C(=O)C2(CC2)c2c1cnc1ccc(-c3cncc(C(C)(C)O)c3)cc21` [Example 25, 8′-(5-(2-Hydroxypropan-2-yl)pyridin-3-yl)-3 methylspiro[cyclopropane-1,1′-pyrrolo[2,3-c]quinolin]-2′(3′-H)-one]: more than 100 nM; for `COc1ncc(-c2ccc3ncc4c(c3c2)C2(CC2)C(=O)N4C)cc1C(C)(C)O` [Example 26, 8′-(5-(2-Hydroxypropan-2-yl)-6-methoxypyridin-3-yl)-3′-methylspiro [cyclopropane-1,1′-pyrrolo[2,3-c]quinolin]-2′(3′-H)-one]: more than 100 nM. Still for that read-out and setting: the result for `COc1ncc(-c2ccc3ncc4c(c3c2)C2(CC2)C(=O)N4CCC#N)cc1NS(=O)(=O)c1ccccc1` [Example 27, N-(5-(3′-(2-Cyanoethyl)-2′-oxo-2′,3′-dihydrospiro[cyclopropane-1,1′-pyrrolo[2,3-c]quinolin]-8′-yl)-2-methoxypyridin-3-yl)benzenesulfonamide] reads more than 100 nM. `CN1C(=O)C2(CC2)c2c1cnc1ccc(-c3cnc(Cl)c(C(C)(C)O)c3)cc21` [Example 28, 8′-(6-Chloro-5-(2-hydroxypropan-2-yl)pyridin-3-yl)-3′-methylspiro[cyclopropane-1,1′-pyrrolo[2,3-c]quinolin]-2′(3′-H)-one] registered an IC50 of more than 100 nM.

With `CC(C)N1C(=O)C2(CC2)c2c1cnc1ccc(-c3cnc(OCCCN(C)C)c(NS(=O)(=O)c4ccccc4)c3)cc21` [Example 31, N-(2-(3-(Dimethylamino)propoxy)-5-(3′-isopropyl-2′-oxo-2′,3′-dihydrospiro [cyclopropane-1,1′-pyrrolo[2,3-c]quinolin]-8′-yl)pyridin-3-yl) benzenesulfonamide], the IC50 is more than 100 nM. Take `CC(C)Nc1cc(-c2ccc3ncc4c(c3c2)C2(CC2)C(=O)N4C)cnc1OCCCN(C)C` [Example 34, 8′-(6-(3-(Dimethylamino)propoxy)-5-(isopropylamino)pyridin-3-yl)-3′-methylspiro[cyclopropane-1,1′-pyrrolo[2,3-c]quinolin]-2′(3′-H)-one]: the IC50 was more than 100 nM.

With `COc1ncc(-c2ccc3ncc4c(c3c2)C2(CC2)C(=O)N4C)cc1S(=O)(=O)c1ccccc1` [Example 36], the IC50 was more than 100 nM. The same measure, in the same setting: the same measure for `CC(C)Oc1cc(-c2ccc3ncc4c(c3c2)C2(CC2)C(=O)N4C)cnc1OCCCN(C)C` [Example 38, 8′-(6-(3-(Dimethylamino)propoxy)-5-isopropoxypyridin-3-yl)-3′-methylspiro[cyclopropane-1,1′-pyrrolo[2,3-c]quinolin]-2′(3′-H)-one]: more than 100 nM; for `CN1C(=O)C2(CC2)c2c1cnc1ccc(-c3ccc4nccnc4c3)cc21` [Example 39, 3′-Methyl-8′-(quinoxalin-6-yl)spiro[cyclopropane-1,1′-pyrrolo[2,3-c]quinolin]-2′(3′-H)-one]: more than 100 nM. The compound `CN1C(=O)C2(CC2)c2c1cnc1ccc(-c3ccc4[nH]c(=O)ccc4c3)cc21` [Example 40] showed an IC50 of more than 100 nM. Regarding `CN1C(=O)C2(CC2)c2c1cnc1ccc(-c3ccc4nc(Cl)ccc4c3)cc21` [Example 41, 8′-(2-Chloroquinolin-6-yl)-3′-methylspiro [cyclopropane-1,1′-pyrrolo [2,3-c]quinolin]-2′(3′-H)-one], the IC50 is more than 100 nM. Still for that read-out and setting: the same measure for `COc1ccc2cc(-c3ccc4ncc5c(c4c3)C3(CC3)C(=O)N5C)ccc2n1` [Example 44, 8′-(2-Methoxyquinolin-6-yl)-3′-methylspiro [cyclopropane-1,1′-pyrrolo[2,3-c]quinolin]-2′(3′-H)-one]: more than 100 nM; for `CN1C(=O)C2(CC2)c2c1cnc1ccc(-c3ccc4c(ccc(=O)n4C)c3)cc21` [Example 45, 3′-Methyl-8′-(1-methyl-2-oxo-1,2-dihydroquinolin-6-yl)spiro[cyclopropane-1,1′-pyrrolo[2,3-c]quinolin]-2′(3′-H)-one]: more than 100 nM.

The same experiment, now with this note: pKAP1 in etoposide-treated MCF-7 cells.
In the case of `CN1C(=O)C2(CCC2)c2c1cnc1ccc(-c3cnc(N4CCC(C)(N5CCCCC5)C4)c(NS(C)(=O)=O)c3)cc21` (racemic) [Example 353, (rac)-N-(5-(3′-Methyl-2′-oxo-2′,3′-dihydrospiro[cyclobutane-1,1′-pyrrolo[2,3-c]quinolin]-8′-yl)-2-(3-methyl-3-(piperidin-1-yl)pyrrolidin-1-yl)pyridin-3-yl)methanesulfonamide hydrochloride], the IC50 was more than 100 nM.
